# Tests used:
# [1] = target: T1, GI.9 Vancouver P domain (P dimer) of VP1 (Norovirus Hu/GI/Vancouver730/2004/CAN, UniProt F2XMU3); test: X-ray crystal structure (soak), […] A; assay type: binding; settings: crystal in 0.1 M bicine pH 9.0, 1.5-1.7 M MgCl2; soaked with 100 mM ligand overnight at 25 °C; HBGA site at P dimer interface
# T1 construct: P (protruding) domain, residues 229-540 of VP1; N11-SUMO fusion from E. coli cell-free system or E. coli KRX, tag cleaved with SUMO protease; homodimer, site formed by both protomers (P-loop from the other protomer)
# [2] = target: T1, GI.9 Vancouver P domain (P dimer) of VP1; test: X-ray crystal structure (soak), […] A; assay type: binding; settings: crystal in 0.1 M bicine pH 9.0, 1.5-1.7 M MgCl2; soaked with 100 mM ligand overnight at 25 °C; HBGA site at P dimer interface; remark: listed apart in the source
# [3] = target: P domain of the VP1 capsid protein of the GI.9 norovirus Vancouver 730 strain (norovirus GI.9, Vancouver 730 strain); test: SEC; size-exclusion chromatogram of the synthesized P domain proteins; data not shown
molecule,measurement,setting,value
CC(=O)N[C@H]1C(O)O[C@H](CO)[C@@H](O[C@@H]2O[C@@H](C)[C@@H](O)[C@@H](O)[C@@H]2O)[C@@H]1O[C@@H]1O[C@H](CO)[C@H](O)[C@H](O)[C@H]1O[C@@H]1O[C@@H](C)[C@@H](O)[C@@H](O)[C@@H]1O (stereo partly drawn) [Lewis b tetrasaccharide],"X-ray crystal structure (soak), 2.40 A",[1],crystal structures of the P domains complexed with each of Lewis b tetrasaccharide and Lewis x
CC(=O)N[C@H]1C(O)O[C@H](CO)[C@@H](O[C@@H]2O[C@H](CO)[C@H](O)[C@H](O)[C@H]2O)[C@@H]1O[C@@H]1O[C@@H](C)[C@@H](O)[C@@H](O)[C@@H]1O (stereo partly drawn) [Lewis x trisaccharide],"X-ray crystal structure (soak), 2.26 A",[2],P domains complexed with each of Lewis b tetrasaccharide and Lewis x trisaccharide
P domain of the VP1 capsid protein of the GI.9 norovirus Vancouver 730 strain (domain or fragment),stoichiometry N,[3],2
